This is an account of results in patent publication US8349826B2, “Oxazolidinone derivatives” (Actelion Pharmaceuticals Ltd., priority 2008, dated 2013).

Converted amounts (≈) assume the structure as drawn.

The experiment deals with Moraxella catarrhalis A894. Kind of experiment: MIC by broth microdilution (cation-adjusted Mueller-Hinton Broth, CLSI M7-A7). It is filed as cell-based. As for the experimental part: Minimal inhibitory concentrations (MICS; mg/l) were determined in cation-adjusted Mueller-Hinton Broth by a microdilution procedure following the description given in “Procedures for Dilution Antimicrobial Susceptibility Tests for Bacteria that Grow Aerobically”, Approved standard, 7th ed., Clinical and Laboratory Standards Institute (CLSI) Document M7-A7, Wayne, Pa., USA, 2006. All Example compounds were tested against several Gram positive and Gram negative bacteria such as S. aureus, E. faecalis, S. pneumoniae, M. catarrhalis, A. baumanii, E. coli or P. aeruginosa.

As for `COc1ccc2ncc(=O)n(C[C@H](O)CNC[C@@H]3CN(c4ccc5c(c4)OCCO5)C(=O)O3)c2n1` [Example 26, 4-((R)-3-{[(R)-3-(2,3-dihydro-benzo[1,4]dioxin-6-yl)-2-oxo-oxazolidin-5-ylmethyl]-amino}-2-hydroxy-propyl)-6-methoxy-4H-pyrido[2,3-b]pyrazin-3-one], the MIC (as a rule, the lowest concentration found to suppress growth) amounted to 0.25 µg/mL (≈ 0.517 µM).
Turning to `COc1ccc2ncc(=O)n(C[C@H](O)CNC[C@@H]3CN(c4ccc5c(c4)NC(=O)CO5)C(=O)O3)c2n1` [Example 27], the “MIC Moraxella catarrhalis A894” value is on record as “<=0.031 mg/l”.
For the molecule `COc1ccc2c(c1)N(CCCNC[C@@H]1CN(c3ccc4c(c3)OCCO4)C(=O)O1)C(=O)CC2` [Example 28, 1-(3-{[(R)-3-(2,3-dihydro-benzo[1,4]dioxin-6-yl)-2-oxo-oxazolidin-5-ylmethyl]-amino}-propyl)-7-methoxy-3,4-dihydro-1H-quinolin-2-one], the MIC was 1 µg/mL (≈ 2.14 µM).
On the same count and under the same terms, next, `COc1ccc2ncc(=O)n(CCCNC[C@@H]3CN(c4ccc(C)c(F)c4)C(=O)O3)c2n1` [Example 29, 4-(3-{[(R)-3-(3-fluoro-4-methyl-phenyl)-2-oxo-oxazolidin-5-ylmethyl]-amino}-propyl)-6-methoxy-4H-pyrido[2,3-b]pyrazin-3-one]: 0.063 µg/mL (≈ 0.143 µM); `COc1ccc2ncc(=O)n(C3CN(C[C@@H]4CN(c5ccc6c(c5)NC(=O)CS6)C(=O)O4)C3)c2n1` [Example 30, 6-methoxy-4-{1-[(R)-2-oxo-3-(3-oxo-3,4-dihydro-2H-benzo[1,4]thiazin-6-yl)-oxazolidin-5-ylmethyl]-azetidin-3-yl}-4H-pyrido[2,3-b]pyrazin-3-one]: at most 0.016 µg/mL; `CCOc1ccc(N2C[C@@H](CCN3CC(n4c(=O)cnc5ccc(OC)nc54)C3)OC2=O)cc1` [Example 34, 4-(1-{2-[(R)-3-(4-ethoxy-phenyl)-2-oxo-oxazolidin-5-yl]-ethyl}-azetidin-3-yl)-6-methoxy-4H-pyrido[2,3-b]pyrazin-3-one]: 8 µg/mL (≈ 17.2 µM).
On the same count and under the same terms, under `COc1ccc2nc(C)c(=O)n(CCCNC[C@@H]3CN(c4ccc5c(c4)NC(=O)CS5)C(=O)O3)c2n1` [Example 35, 6-methoxy-2-methyl-4-(3-{[(R)-2-oxo-3-(3-oxo-3,4-dihydro-2H-benzo[1,4]thiazin-6-yl)-oxazolidin-5-ylmethyl]-amino}-propyl)-4H-pyrido[2,3-b]pyrazin-3-one] stands at most 0.016 µg/mL.
Turning to “rac-4-(2-{2-[3-(2,3-dihydro-[1,4]dioxino[2,3-b]pyridin-6-yl)-2-oxo-oxazolidin-5-yl]-ethylamino}-ethyl)-6-methoxy-4H-pyrido[2,3-b]pyrazin-3-one [Example 32]”, the “MIC Moraxella catarrhalis A894” value came to 1 µg/mL.
